From patent US20220170028A1, “NOVEL INTERLEUKIN-2 VARIANTS AND BIFUNCTIONAL FUSION MOLECULES THEREOF” (Cugene Inc, priority 2019, published 2022)

Tests used:
[1] = system: STAT5 phosphorylation in CD8+ T cells; assay: STAT5 phosphorylation in CD8+ T cells, human PBMC; assay type: cell-based
Source text: The Stat5 phosphorylation activity on other responder cells than CD4+ T cell subsets, including CD8+T and NK, by P-0511 was compared to P-0531, the S125I equivalent of wild-type P-0250. […] IL-2 receptors expressed on CD4+ Tconv, CD8+T and NK cells are primarily dimeric IL-2Rs, comprising IL-2R6 and γc.

[2] = system: STAT5 phosphorylation in CD4+ Treg cells; assay: STAT5 phosphorylation in CD4+ Treg cells, human PBMC assay by FACS; assay type: cell-based
In short: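 Donor PBMCs were starved in serum-free buffer at 4° C for 1 h, then 2×10^5 cells were exposed to serial dilutions of IL-2 variants for 30 min at 37° C. After fixation and permeabilization they were stained for CD4, CD25, FOXP3 and pSTAT5. Read-out is percent pSTAT5+ cells among CD4+/Foxp3+/CD25^high (Treg) or CD4+/Foxp3−/CD25^low (Tconv) cells by flow cytometry.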

[3] = Transient expression level of IL-2 Fc fusion constructs in HEK-293F cells; conditions: Isoleucine-125 constructs
Protocol: The constructs were produced by co-transfecting HEK293-F cells growing in suspension with the mammalian expression vectors using polyethylenimine (PEI, 25,000 MW linear, Polysciences). If there were two or more expression vectors, the vectors were transfected in a 1:1 ratio. For transfection, HEK293 cells were cultivated in serum free FreeStyle™ 293 Expression Medium (ThermoFisher). For production in 1000 ml shaking flasks (working volume 330 mL), HEK293 cells were seeded at a density of 0.8×10^6 cells/ml 24 hours before transfection. A total of 330 μg of DNA expression vectors were mixed with 16.7 ml Opti-mem Medium (ThermoFisher). After addition of 0.33 mg PEI diluted in 16.7 ml Opti-mem Medium, the mixture was vortexed for 15 sec and subsequently incubated for 10 min at room temperature. The DNA/PEI solution was then added to the cells and incubated at 37° C. in an incubator with 8% CO2. Sodium butyrate (Millipore Sigma) was added to the cells at day 4 at a final concentration of […] to help sustain protein expression. After 6 days cultivation, supernatant was collected for purification by centrifugation for 20 min at 2200 rpm. The solution was sterile filtered (0.22 μm filter, Corning). The secreted protein was purified from cell culture supernatants using Protein A affinity chromatography.
S125I substitution was thus introduced into a number of IL-2 variant Fc fusion molecules. The constructs harboring Ile-125 substitution in IL-2 were expressed using the same vector and in the same culturing conditions as their Ser-125 counterparts and purified using MabSelectSure. The expression level in mg/L and purity assessed by SEC chromatography in aggregation % of exemplary molecules are summarized in Table 6. The two molecules in the same row of Table 6 share the same other amino acid substitution(s) and differ only at residue 125 with either serine or isoleucine. As an example, the SEC chromatogram and SDS-PAGE pictures of P-0447 (SEQ ID NO: 173) and its Ile-125 counterpart P-0511 (SEQ ID NO: 213) were further illustrated in FIGS. 1D and 1E.

IL-2Rβ and γc complex = target: T1, IL-2Rβ and γc complex (Homo sapiens, UniProt P14784+P31785); assay: ELISA binding to IL-2Rβ and γc complex
T1 construct: IL-2R6-ECD (NP_000869); γc-ECD (NP_000197)
T1 sequence (P14784 27-240 limits assumed): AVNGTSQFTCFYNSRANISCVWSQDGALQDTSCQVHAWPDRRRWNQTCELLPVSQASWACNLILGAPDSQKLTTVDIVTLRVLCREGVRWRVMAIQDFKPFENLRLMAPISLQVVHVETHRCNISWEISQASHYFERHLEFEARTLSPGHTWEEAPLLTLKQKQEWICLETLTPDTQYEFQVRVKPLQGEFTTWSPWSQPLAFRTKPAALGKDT
T1 sequence (P31785 23-262 limits assumed): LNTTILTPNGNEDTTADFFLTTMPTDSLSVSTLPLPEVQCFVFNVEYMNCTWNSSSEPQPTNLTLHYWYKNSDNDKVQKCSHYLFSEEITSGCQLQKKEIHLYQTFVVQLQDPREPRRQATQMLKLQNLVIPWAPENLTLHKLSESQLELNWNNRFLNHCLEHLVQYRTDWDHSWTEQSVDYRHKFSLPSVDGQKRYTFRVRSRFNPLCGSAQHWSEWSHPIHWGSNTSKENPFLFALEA
Protocol: Briefly, non-covalent complex of IL-2R6-ECD (NP_000869) and γc-ECD (NP_000197) through heterodimeric Fc chains was coated onto the wells of Nunc Maxisorp 96-well microplates at 2 μg/well. After overnight incubation at 4° C. and blocking with superblock (ThermoFisher), 3-fold serial dilutions of IL-2 Fc fusion proteins starting at either 100 or 270 nM were added to each well at 100 Following a one-hour incubation at room temperature, biotin mouse anti-human IL-2 Ab (BD BioSciences) at 1 μg/ml was added to each well followed by incubation with HRP-Avidin (ThermoFisher) at 1 μg/ml for 1 hour. Wells were thoroughly aspirated and washed three times with PBS/0.05% Tween-20 following each step. Finally, 100 TMB substrate was added to each well; the plate was developed at room temperature in the dark for 10 minutes, and 100 of stop solution (2N Sulfuric acid, Ricca Chemical) was added. Absorbance was determined at 450 nm; curves were fit using Prism software (Graph Pad) and illustrated in FIG. 11E.

binding to IL-2 dimeric receptor complex, EC50 (IL-2Rβ and γc complex): did not show appreciable binding
Substance: P-0511: IL-2 L19H/S125I/Q126E Fc fusion, SEQ ID NO: 213
STAT5 phosphorylation activity in CD8+ T cells (in words) [1]: nearly completely abolished
potency in ex vivo cell assay relative to P-0560 [2]: over 100 fold
Expression [3]: 26.6 mg/L
